Results published in the NIST ThermoML archive (doi:10.1016/j.jct.2017.03.011).
± gives the expanded uncertainty stated by the source.

Columns and labels:
[1] = Molar enthalpy of transition or fusion; conditions: DSC

O=C1COC(=O)CO1 [1,4-dioxane-2,5-dione]
Normal melting temperature (Crystal 1, DTA): 83.00 ± 2 °C | Triple point temperature (Crystal 2, DSC): 316.55 ± 2.1 K | Molar enthalpy of transition or fusion ([1]; Crystal 1): 13.7 ± 1.4 kJ/mol | Molar enthalpy of transition or fusion ([1]; Crystal 2): 1.74 ± 0.2 kJ/mol
